From PubChem BioAssay (NCI)
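Following 48 hours of exposure in 96-well plates, responses at five concentrations were used to interpolate endpoints linearly. TGI: total growth inhibition.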

Tests used:
Test in all cases: inhibition of tumour cell growth, NCI panel, 48 h
XF 498 CNS = tested on: XF 498 CNS
DLD-1 colon = tested on: DLD-1 colon
M19-MEL melanoma = tested on: M19-MEL melanoma
DMS 114 small cell lung = tested on: DMS 114 small cell lung
HOP-18 NSCLC = tested on: HOP-18 NSCLC
SK-OV-3 ovarian = tested on: SK-OV-3 ovarian
RXF-631 renal = tested on: RXF-631 renal
OVCAR-5 ovarian = tested on: OVCAR-5 ovarian
KM20L2 colon = tested on: KM20L2 colon
LXFL 529 NSCLC = tested on: LXFL 529 NSCLC
ACHN renal = tested on: ACHN renal
SNB-78 CNS = tested on: SNB-78 CNS
DMS 273 small cell lung = tested on: DMS 273 small cell lung

`Cc1ccc2c(c1)C1(OC(=O)c3ccccc31)c1ccc(F)cc1O2` (centres undefined) showed a TGI (XF 498 CNS) of over 100 µM, a TGI (DLD-1 colon) of over 100 µM and a TGI (M19-MEL melanoma) of over 100 µM. The TGI (DMS 114 small cell lung) was over 100 µM, the TGI (HOP-18 NSCLC) was over 100 µM and the TGI (SK-OV-3 ovarian) was over 100 µM. The TGI (RXF-631 renal) was over 100 µM, the TGI (OVCAR-5 ovarian) was over 100 µM and the TGI (KM20L2 colon) was over 100 µM. It also gave a TGI (LXFL 529 NSCLC) of over 100 µM.
Molecule `CC(=O)OC1CC2(C)OC(Cc3ccccc32)O1` (centres undefined) has a TGI (ACHN renal) of over 100 µM, a TGI (XF 498 CNS) of over 100 µM and a TGI (DLD-1 colon) of over 100 µM. It also gave a TGI (M19-MEL melanoma) of over 100 µM, a TGI (DMS 114 small cell lung) of over 100 µM and a TGI (HOP-18 NSCLC) of over 100 µM. It also gave a TGI (SNB-78 CNS) of over 100 µM, a TGI (SK-OV-3 ovarian) of over 100 µM and a TGI (DMS 273 small cell lung) of over 100 µM. For the same molecule, the TGI (KM20L2 colon) was over 100 µM.
`Cc1ccc(S(=O)(=O)N2c3ccccc3[C@H]3CCC=C[C@H]32)cc1` was tested, and the TGI (ACHN renal) was over 93.3 µM, the TGI (XF 498 CNS) was 73.7 µM and the TGI (DLD-1 colon) was over 100 µM. It also gave a TGI (M19-MEL melanoma) of 37.8 µM, a TGI (DMS 114 small cell lung) of 15.1 µM and a TGI (HOP-18 NSCLC) of over 100 µM. The TGI (SNB-78 CNS) was over 85.7 µM, the TGI (SK-OV-3 ovarian) was 28.6 µM and the TGI (RXF-631 renal) was over 100 µM. It also gave a TGI (DMS 273 small cell lung) of 18.9 µM, a TGI (OVCAR-5 ovarian) of over 100 µM and a TGI (KM20L2 colon) of 10.3 µM. It also gave a TGI (LXFL 529 NSCLC) of over 93.9 µM.
With `Cc1ccc(NCC(=O)N2CC(=O)Nc3ccccc32)cc1` the TGI (ACHN renal) was over 100 µM, the TGI (XF 498 CNS) was over 100 µM and the TGI (DLD-1 colon) was over 100 µM. It also gave a TGI (M19-MEL melanoma) of over 100 µM, a TGI (DMS 114 small cell lung) of over 100 µM and a TGI (HOP-18 NSCLC) of over 100 µM. The TGI (SNB-78 CNS) was over 100 µM, the TGI (SK-OV-3 ovarian) was over 100 µM and the TGI (DMS 273 small cell lung) was over 100 µM. The TGI (OVCAR-5 ovarian) was over 100 µM, the TGI (KM20L2 colon) was over 100 µM and the TGI (LXFL 529 NSCLC) was over 100 µM.
For `c1cnc2c(c1)-n1cccc1C1(CCSC1)NN2` (centres undefined), the TGI (ACHN renal) was over 100 µM, the TGI (XF 498 CNS) was over 100 µM and the TGI (DLD-1 colon) was over 100 µM. The TGI (M19-MEL melanoma) was over 100 µM, the TGI (DMS 114 small cell lung) was over 100 µM and the TGI (HOP-18 NSCLC) was over 100 µM. The TGI (SNB-78 CNS) was over 100 µM, the TGI (DMS 273 small cell lung) was over 100 µM and the TGI (OVCAR-5 ovarian) was over 100 µM.
`COC(=O)C(CC(C)=O)CS(=O)(=O)CC(=O)C(=O)Nc1cccc([N+](=O)[O-])c1` (centres undefined) showed a TGI (ACHN renal) of over 100 µM, a TGI (XF 498 CNS) of over 100 µM and a TGI (DLD-1 colon) of over 100 µM. The TGI (M19-MEL melanoma) was over 100 µM, the TGI (DMS 114 small cell lung) was over 100 µM and the TGI (HOP-18 NSCLC) was over 100 µM. It also gave a TGI (SNB-78 CNS) of over 100 µM, a TGI (SK-OV-3 ovarian) of over 100 µM and a TGI (RXF-631 renal) of over 100 µM. For the same molecule, the TGI (DMS 273 small cell lung) was over 100 µM, the TGI (OVCAR-5 ovarian) was over 100 µM and the TGI (KM20L2 colon) was over 100 µM. The TGI (LXFL 529 NSCLC) was over 100 µM.
Molecule `CCC12CCCNC1c1c(n(C)c3ccccc13)C(C(=O)OC)C2` (centres undefined) has a TGI (ACHN renal) of 257 µM, a TGI (XF 498 CNS) of 123 µM and a TGI (DLD-1 colon) of over 275 µM. The TGI (M19-MEL melanoma) was 194 µM, the TGI (DMS 114 small cell lung) was 152 µM and the TGI (SK-OV-3 ovarian) was 186 µM. For the same molecule, the TGI (DMS 273 small cell lung) was 246 µM, the TGI (OVCAR-5 ovarian) was 208 µM and the TGI (KM20L2 colon) was 231 µM. For the same molecule, the TGI (LXFL 529 NSCLC) was over 275 µM.
`COc1ccc(N2C(=O)c3c(c4[nH]c5ccc(OC)cc5c4c4ccc(C(C)(C)C)cc34)C2=O)cc1` was tested, and the TGI (ACHN renal) was over 100 µM, the TGI (XF 498 CNS) was over 100 µM and the TGI (DLD-1 colon) was over 100 µM. For the same molecule, the TGI (M19-MEL melanoma) was over 100 µM, the TGI (DMS 114 small cell lung) was over 100 µM and the TGI (HOP-18 NSCLC) was over 100 µM. For the same molecule, the TGI (SNB-78 CNS) was over 100 µM, the TGI (SK-OV-3 ovarian) was over 100 µM and the TGI (DMS 273 small cell lung) was over 100 µM. The TGI (OVCAR-5 ovarian) was over 100 µM and the TGI (LXFL 529 NSCLC) was over 100 µM.
With `CCCC(N)C(=O)c1ccccc1` (centres undefined) the TGI (ACHN renal) was over 100 µM, the TGI (XF 498 CNS) was over 100 µM and the TGI (DLD-1 colon) was over 100 µM. The TGI (DMS 114 small cell lung) was over 100 µM, the TGI (HOP-18 NSCLC) was over 100 µM and the TGI (SNB-78 CNS) was over 100 µM. It also gave a TGI (SK-OV-3 ovarian) of over 100 µM, a TGI (DMS 273 small cell lung) of over 100 µM and a TGI (OVCAR-5 ovarian) of over 100 µM. It also gave a TGI (KM20L2 colon) of over 100 µM and a TGI (LXFL 529 NSCLC) of over 100 µM.
Work on `Cc1cc(C)n2c(-c3ccccc3)c(C)cc2n1` yielded a TGI (ACHN renal) of over 100 µM, a TGI (DLD-1 colon) of over 100 µM and a TGI (M19-MEL melanoma) of over 100 µM. For the same molecule, the TGI (DMS 114 small cell lung) was over 100 µM, the TGI (HOP-18 NSCLC) was over 100 µM and the TGI (SNB-78 CNS) was over 100 µM. It also gave a TGI (SK-OV-3 ovarian) of over 100 µM, a TGI (RXF-631 renal) of over 100 µM and a TGI (DMS 273 small cell lung) of over 100 µM. For the same molecule, the TGI (OVCAR-5 ovarian) was over 100 µM and the TGI (KM20L2 colon) was over 100 µM.
`COC(=O)C1=CC2CC1C(S(=O)(=O)c1ccccc1)C2S(=O)(=O)c1ccccc1` (centres undefined) showed a TGI (DLD-1 colon) of 29.8 µM, a TGI (M19-MEL melanoma) of 42.2 µM and a TGI (DMS 114 small cell lung) of 36 µM. The TGI (HOP-18 NSCLC) was 30.5 µM, the TGI (SK-OV-3 ovarian) was over 100 µM and the TGI (RXF-631 renal) was 26.9 µM. For the same molecule, the TGI (DMS 273 small cell lung) was 23.4 µM, the TGI (OVCAR-5 ovarian) was 28.3 µM and the TGI (KM20L2 colon) was 33.2 µM. It also gave a TGI (LXFL 529 NSCLC) of 18.6 µM.
Work on `CC(Oc1ccc(OCC2CCCCC2)cc1)C(=O)NCCO` (centres undefined) yielded a TGI (ACHN renal) of over 100 µM, a TGI (DLD-1 colon) of over 100 µM and a TGI (M19-MEL melanoma) of over 100 µM. For the same molecule, the TGI (DMS 114 small cell lung) was over 100 µM, the TGI (HOP-18 NSCLC) was over 100 µM and the TGI (SNB-78 CNS) was over 100 µM. The TGI (SK-OV-3 ovarian) was over 100 µM, the TGI (DMS 273 small cell lung) was over 100 µM and the TGI (LXFL 529 NSCLC) was over 100 µM.
Molecule `C[C@H](NC(=O)n1c2ccccc2c2ccccc21)C(=O)O` has a TGI (ACHN renal) of over 100 µM, a TGI (DLD-1 colon) of over 100 µM and a TGI (M19-MEL melanoma) of over 100 µM. For the same molecule, the TGI (DMS 114 small cell lung) was over 100 µM, the TGI (HOP-18 NSCLC) was over 100 µM and the TGI (SK-OV-3 ovarian) was over 100 µM. For the same molecule, the TGI (RXF-631 renal) was over 100 µM, the TGI (DMS 273 small cell lung) was over 100 µM and the TGI (OVCAR-5 ovarian) was over 100 µM. For the same molecule, the TGI (KM20L2 colon) was over 100 µM and the TGI (LXFL 529 NSCLC) was over 100 µM.
`CCOC(=O)CSc1nnc(CSc2nc(-c3ccccc3)c(-c3ccccc3)[nH]2)n1-c1ccccc1` was tested, and the TGI (ACHN renal) was 35.5 µM, the TGI (XF 498 CNS) was 46.3 µM and the TGI (DLD-1 colon) was over 100 µM. The TGI (M19-MEL melanoma) was over 100 µM, the TGI (DMS 114 small cell lung) was 39.8 µM and the TGI (SNB-78 CNS) was 68.5 µM. For the same molecule, the TGI (SK-OV-3 ovarian) was 43.8 µM, the TGI (DMS 273 small cell lung) was over 100 µM and the TGI (OVCAR-5 ovarian) was over 100 µM. The TGI (KM20L2 colon) was 59.2 µM and the TGI (LXFL 529 NSCLC) was 42.4 µM.
With `COC(=O)C1(C(=O)OC)N=C(C)OC1c1ccccn1` (centres undefined) the TGI (ACHN renal) was over 100 µM, the TGI (SK-OV-3 ovarian) was over 100 µM and the TGI (OVCAR-5 ovarian) was over 100 µM.
For `Cc1cc2oc(-c3ccccc3)c(C)c(=O)c2c2c1OC(C)(C)S2`, the TGI (ACHN renal) was over 100 µM, the TGI (XF 498 CNS) was over 100 µM and the TGI (DLD-1 colon) was over 100 µM. It also gave a TGI (M19-MEL melanoma) of over 100 µM, a TGI (DMS 114 small cell lung) of over 100 µM and a TGI (HOP-18 NSCLC) of over 100 µM. The TGI (SK-OV-3 ovarian) was over 100 µM, the TGI (RXF-631 renal) was over 100 µM and the TGI (DMS 273 small cell lung) was over 100 µM. It also gave a TGI (OVCAR-5 ovarian) of over 100 µM, a TGI (KM20L2 colon) of over 100 µM and a TGI (LXFL 529 NSCLC) of over 100 µM.
`CC(=O)Oc1c2c(c(CC=C(C)C)c3c1C(=O)C1=C[C@@H]4CC5C(C)(C)OC(C/C=C(/C)C(=O)O)(C4=O)[C@@]15O3)OC(C)(CCC=C(C)C)C=C2` (some centres undefined) gave a TGI (ACHN renal) of 0.279 µM, a TGI (SK-OV-3 ovarian) of 1.91 µM and a TGI (OVCAR-5 ovarian) of 1.16 µM.
